Test results taken from ChEMBL document CHEMBL3988442, “University of Dundee, Small-Polar-MMV Screening Library” (2021).

Biological target: T1, Coenzyme A biosynthesis bifunctional protein CoaBC (Mycobacterium tuberculosis (strain ATCC 25618 / H37Rv), UniProt P9WNZ1)
T1 sequence (P9WNZ1 whole entry): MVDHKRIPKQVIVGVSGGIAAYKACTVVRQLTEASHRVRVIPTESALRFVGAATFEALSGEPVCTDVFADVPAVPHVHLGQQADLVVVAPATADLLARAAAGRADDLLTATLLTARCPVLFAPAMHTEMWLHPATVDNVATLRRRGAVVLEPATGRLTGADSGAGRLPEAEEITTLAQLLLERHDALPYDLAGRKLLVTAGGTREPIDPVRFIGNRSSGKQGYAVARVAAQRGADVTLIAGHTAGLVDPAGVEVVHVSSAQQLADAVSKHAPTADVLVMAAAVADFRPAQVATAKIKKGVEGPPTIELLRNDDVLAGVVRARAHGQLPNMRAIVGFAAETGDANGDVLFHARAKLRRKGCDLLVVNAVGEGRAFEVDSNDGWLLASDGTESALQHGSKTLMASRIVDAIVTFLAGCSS
Assay: Biomol Green assay for MtCoaBC inhibitor, OD650 read
Format: functional

Row | SMILES | IC50
1 | CN1CCc2nnc(C3CCCN3S(=O)(=O)c3ccc(F)cc3)n2CC1 (stereo not drawn) | > 30.2 µM
2 | Cc1nonc1C1CCCN1Cc1ccc(C(=O)Nc2nccs2)cc1 (stereo not drawn) | > 30.2 µM
3 | COCCC(=O)NCc1ccc(-c2ccccc2C(=O)O)nc1 | > 30.2 µM
4 | Cc1cccc(NC2CCN(C(=O)Nc3cn[nH]c3)CC2)n1 | > 30.2 µM
5 | COc1ccccc1CNC(=O)N1CCN(Cc2cc(C)on2)CC1 | > 30.2 µM
6 | Cc1n[nH]c(C)c1NC(=O)CN1CCN(c2nccs2)C(C)C1 (stereo not drawn) | > 30.2 µM
7 | COCCNC(=O)CCNc1cc(C)nc(-c2ccncc2)n1 | > 30.2 µM
8 | O=C([C@H]1C[C@@H]2CCN(c3cccc(F)c3)C[C@H]2O1)N1CCCC1 | > 30.2 µM
9 | CCCn1cc(CN2CCOCC2c2[nH]ncc2C)cn1 (stereo not drawn) | > 30.2 µM
10 | CC(C)(CNC(=O)C1(c2ccccc2)CCOCC1)C(=O)O | > 30.2 µM
11 | CN(CC(C)(CO)CO)C(=O)Nc1cc(Cl)cc(Cl)c1 | > 30.2 µM
12 | CCn1cc(CN(C)Cc2cnn(-c3ccc(F)cc3)c2)cn1 | > 30.2 µM
13 | CCC(=O)N1CCCCC1c1nc(O)c2c(n1)CN(S(=O)(=O)CC)CC2 (stereo not drawn) | > 30.2 µM
14 | O=c1oc2ccccc2n1CCCN1CCCC1c1ccc(O)cc1 (stereo not drawn) | > 30.2 µM
15 | CCN(CCO)C[C@@H]1CN(C(=O)c2ccc(C)s2)C[C@@H]1CO | > 30.2 µM
16 | Cc1cnn(CC2CCCN2Cc2nnc(C)o2)c1 (stereo not drawn) | > 30.2 µM
17 | CCSCc1csc(-c2ccc(S(C)(=O)=O)cc2)n1 | > 30.2 µM
18 | CCC(NC(=O)c1cc(CC(C)C)nn1C)c1cccc(C)n1 (stereo not drawn) | > 30.2 µM
19 | Cc1nn(C)c(Cl)c1C1CCCN1Cc1nc(-c2ccco2)no1 (stereo not drawn) | > 30.2 µM
20 | Cc1cnn(CC2CCCN2C(=O)c2cccc(S(C)(=O)=O)c2)c1 (stereo not drawn) | > 30.2 µM
21 | Cc1[nH]ncc1C(=O)NCC(CO)Cc1ccc(Cl)cc1 (stereo not drawn) | > 30.2 µM
22 | C[S+]([O-])c1nncn1CC(=O)c1ccc(Cl)c(Cl)c1 (stereo not drawn) | > 30.2 µM
23 | COCCNC(=O)[C@H]1C[C@@H]2CCN(c3ccccc3)C[C@H]2O1 | > 30.2 µM

Row | SMILES | IC50
24 | O=C(O)C1CCN(c2nc3c(-c4ccccc4F)csc3c(=O)[nH]2)CC1 | > 30.2 µM
25 | Cc1cc(C)cc(-n2ncc3c2CCCC3N)c1 (stereo not drawn) | > 30.2 µM
26 | O=c1n(CC2COCCO2)nc(CC2CCNCC2)n1-c1ccccc1 (stereo not drawn) | > 30.2 µM
27 | Cn1ccnc1-c1cn(Cc2cn3c(n2)SCC3)nn1 | > 30.2 µM
28 | CCNC(=O)C1(Cc2cc(-c3ccc(C)cc3)no2)CCCN(C)C1 (stereo not drawn) | > 30.2 µM
29 | CC1COCCN1C(=O)Cc1cc(Cl)c2c(c1)OCCO2 (stereo not drawn) | > 30.2 µM
30 | CCNC(=O)C1(Cc2cc(-c3ccccc3)no2)CCCN(C)C1 (stereo not drawn) | > 30.2 µM
31 | NC(=O)N1CCC2(CC1)CN(c1ccsc1)C(=O)CO2 | > 30.2 µM
32 | Cc1cc(C)nc(N2CCC(C(=O)Nc3ncc[nH]3)CC2)n1 | > 30.2 µM
33 | CCc1ncc(C(=O)NCC2CCN(Cc3ccncc3)CC2)cn1 | > 30.2 µM
34 | Cc1nc(CN2CCCC2Cn2cncn2)nc2ccccc12 (stereo not drawn) | > 30.2 µM
35 | CS(=O)(=O)NC1CCN(C(=O)NCCc2ccccc2F)CC1 | > 30.2 µM
36 | Cc1cnc(NC(=O)C(C)Oc2ccc3c(c2)OCO3)s1 (stereo not drawn) | > 30.2 µM
37 | Cc1nnc(N2C[C@@H](OCC3CCCC3)[C@H]3OCCC[C@H]32)s1 | > 30.2 µM
38 | COc1cccc([C@@]2(O)CC[C@@H]3CN(C(=O)c4ccn(C)n4)C[C@@H]32)c1 | > 30.2 µM
39 | Cn1nccc1-c1ccc2nc(C3CCN(CC4CC4)CC3)nn2c1 | > 30.2 µM
40 | Cc1nc2c(C(=O)N[C@H]3C[C@H]4CN(C)CCN4C3)cccc2[nH]1 | > 30.2 µM
41 | O=C1CN(Cc2occc2C(=O)NCCc2ccc(F)cc2)CCN1 | > 30.2 µM
42 | Cc1c(C(=O)N2CCC2)nnn1-c1ccc2ncccc2c1 | > 30.2 µM
43 | Cc1cccc(CN2CC3(CCN(C(N)=O)CC3)OCC2=O)n1 | > 30.2 µM
44 | Cc1ccc(-c2cc(C(=O)NCCCc3csc(N)n3)[nH]n2)o1 | > 30.2 µM
45 | COc1cccc(CNC(=O)c2cc(C)nc(N3CCCCC3)n2)c1 | > 30.2 µM
46 | CC(NC(=O)CSCC(N)=O)c1ccc(Oc2ccccc2)cc1 (stereo not drawn) | > 30.2 µM

Row | SMILES | IC50
47 | CN(C)CCO[C@@H]1CC[C@H]2[C@H]1OCCN2C(=O)c1ccncc1 | > 30.2 µM
48 | Cc1cc(C)n(C2CN(c3ncnc4c3CCC4)C2)n1 | > 30.2 µM
49 | CCCNC(=O)NC(C)c1ccccn1 (stereo not drawn) | > 30.2 µM
50 | CC(=O)N1CC(c2ccnc(Nc3nccs3)n2)C1 | > 30.2 µM
51 | Cc1cs/c(=N\C(=O)Cn2nc(N3CCOCC3)ccc2=O)[nH]1 | > 30.2 µM
52 | CCc1nnc(SCc2nonc2C)n1C1CC1 | > 30.2 µM
53 | Cc1nnc(CN(Cc2ccc3c(c2)OCO3)C2CCCCC2)o1 | > 30.2 µM
54 | CC(C)c1nc(CNC2CCN(C(=O)OC(C)(C)C)CC2)cs1 | > 30.2 µM
55 | CN(C)CC(=O)N1CCC2(CC1)CN(c1ccsc1)C(=O)CO2 | > 30.2 µM
56 | Cc1ccc(C)c(CC(=O)NC2(C#N)CCOCC2)c1 | > 30.2 µM
57 | COCCN(C)CC(=O)N1CCCC2(CCC(=O)N(CC3CC3)C2)C1 (stereo not drawn) | > 30.2 µM
58 | Cc1noc(C2CCC3(CCN(C(=O)c4ccncn4)CC3)O2)n1 (stereo not drawn) | > 30.2 µM
59 | Cc1nc(-c2cc(C(=O)O)co2)cs1 | > 30.2 µM
60 | O=C(NC1CCCC1)[C@@H]1CN(Cc2nccs2)C[C@H]2OCC[C@H]21 | > 30.2 µM
61 | Cc1ccc(NC2CCN(C(=O)c3cccc4[nH]ncc34)CC2)nn1 | > 30.2 µM
62 | CCOCC1CN(C(=O)C2=CCCC2)Cc2cnn(C)c21 (stereo not drawn) | > 30.2 µM
63 | CCn1nc(C)c(-c2cncn2Cc2ccccc2CN(C)C)c1C | > 30.2 µM
64 | NC(=O)CC1CCN(S(=O)(=O)c2cnn(-c3ccccc3)c2)CC1 | > 30.2 µM
65 | COc1c(C2SCC(=O)Nc3[nH]ncc32)cc2c(c1OC)OCO2 (stereo not drawn) | > 30.2 µM
66 | Cn1cc(N2C(=O)CC[C@@H]3[C@H]2CCN3Cc2nccs2)cn1 | > 30.2 µM
67 | O=C(NCCc1ccccn1)c1n[nH]c2c1CCC2 | > 30.2 µM
68 | O=C(NC[C@H]1OC[C@@H](NCc2ccc(F)cc2)[C@@H]1O)N1CCOCC1 | > 30.2 µM
69 | Cc1ccc(CNCCN2CCOCC2)o1 | > 30.2 µM

Row | SMILES | IC50
70 | CC(C(=O)N1CCCC1)S(=O)(=O)Cc1noc(C(C)(C)C)n1 (stereo not drawn) | > 30.2 µM
71 | O=C1CC(c2ccc(C(=O)O)cc2)c2c(sc3c2CCCC3)N1 (stereo not drawn) | > 50.1 µM
72 | O=C(CN1CC(n2cccn2)C1)NCCC1=CCCCC1 | > 30.2 µM
73 | O=C(NCC1CC1)[C@H]1C[C@@H]2CN(S(=O)(=O)Cc3ccccc3)C[C@H]1O2 | > 30.2 µM
74 | CCC(c1ccncc1)N(C)S(C)(=O)=O (stereo not drawn) | > 30.2 µM
75 | Cc1ccc(CN2CCN(C3CCCC3)CC2CCO)o1 (stereo not drawn) | > 30.2 µM
76 | CCN1C[C@H]2[C@@H](C1)N(S(=O)(=O)c1cccnc1)CC[C@H]2OC | > 30.2 µM
77 | CCN(CC)C1CCN(C(=O)NCc2cccc(-n3cccn3)c2)C1 (stereo not drawn) | > 30.2 µM
78 | CC(C)NS(=O)(=O)c1cc(C(=O)O)cc(-n2cc3c(n2)CCC3)c1 | > 50.1 µM
79 | O=C1COC[C@H]([C@H](O)c2ccc(NC(=O)c3cccnc3)cc2)N1 | > 30.2 µM
80 | Cc1nc(C2CCCN(C(=O)c3ccc(Cl)cn3)C2)no1 (stereo not drawn) | > 30.2 µM
81 | COc1ccc(NC2CCCN(Cc3cnc(N(C)C)s3)C2)cc1OC (stereo not drawn) | > 30.2 µM
82 | Cc1cnc(N2CCn3cc(CNC(=O)CC4CC4)nc3C2)nc1 | > 30.2 µM
83 | Cc1cccc(NC2CCN(C(=O)Nc3ccccn3)CC2)n1 | > 30.2 µM
84 | O=C(C1CCOC1)N1Cc2ccccc2OC2(CCOCC2)C1 (stereo not drawn) | > 30.2 µM
85 | CN(C)C(=O)c1ccc(C(C(=O)O)N(C)Cc2ccccc2Cl)cc1 (stereo not drawn) | > 30.2 µM
86 | O=C(O)c1cc(-c2ccoc2)cc(S(=O)(=O)N2CCSCC2)c1 | > 30.2 µM
87 | Cc1nn(CCO)c(C)c1CNCc1cccnc1N(C)C | > 30.2 µM
88 | O=C(c1cc2cc(F)ccc2[nH]1)N1CCCCC1Cn1cccn1 (stereo not drawn) | > 30.2 µM
89 | Cc1nn(C)c(C)c1NC(=O)CN1CCN(c2nccs2)C(C)C1 (stereo not drawn) | > 30.2 µM
90 | Cc1cc(C)n(-c2cccc(C(=O)Nc3n[nH]c(C4CCCO4)n3)c2)n1 (stereo not drawn) | > 30.2 µM
91 | FC(F)(F)c1cccnc1N1CCC(OC2CCOCC2)CC1 | > 30.2 µM
92 | Cc1cc(C2CCCN(CCNS(=O)(=O)c3ccccc3)C2)n[nH]1 (stereo not drawn) | > 30.2 µM

Row | SMILES | IC50
93 | O=C(CN1CCCC(c2ccn[nH]2)C1)Nc1nncs1 (stereo not drawn) | > 30.2 µM
94 | Cc1ccc(C(=O)O)c(N2Cc3cnc(C(C)(C)C)nc3C2)n1 | > 30.2 µM
95 | CCC(CO)Nc1nc(C(F)F)nc2ccccc12 (stereo not drawn) | > 30.2 µM
96 | Cn1ncnc1NS(=O)(=O)c1ccc(F)cc1Cl | > 30.2 µM
97 | Cc1cccc(CN(C(=O)CCn2cncn2)C(C)C)c1 | > 30.2 µM
98 | CCc1nccn1-c1nccnc1C1CCN(C(=O)COC)CC1 | > 30.2 µM
99 | CCc1cnc(CN(C)C2CCN(CCCNS(C)(=O)=O)C2)o1 (stereo not drawn) | > 30.2 µM
100 | COc1cc(O)cc2c1C(=O)CC(c1ccc(O)cc1)O2 (stereo not drawn) | > 30.2 µM
101 | COc1c(C2CCCN2CC(=O)Nc2nccs2)c(C)nn1C (stereo not drawn) | > 30.2 µM
102 | CC1CCN(CCNC(=O)c2ccn(-c3ccc(F)cc3)n2)CC1 | > 30.2 µM
103 | CCS(=O)(=O)c1ccc2oc([C@H]3CCN(Cc4ccccn4)C3)nc2c1 | > 30.2 µM
104 | CS(=O)(=O)c1ccc(CN2C[C@H]3CC[C@@H]2CN(c2ncccn2)C3)cc1 | > 30.2 µM
105 | Cc1cccc(NC(=O)NC2CCC3(C2)OCCO3)c1Cl (stereo not drawn) | > 30.2 µM
106 | CN(Cc1cccnc1)CC1CC12CCN(Cc1nccs1)CC2 (stereo not drawn) | > 50.1 µM
107 | COCC1c2nnn(CC3CC3)c2CCN1C(=O)c1cccn1C (stereo not drawn) | > 30.2 µM
108 | O=C(c1ccnc(C2CCNCC2)c1)N1CCCC(CO)C1 (stereo not drawn) | > 30.2 µM
109 | CC1(C)CN(CCC(=O)NCc2cccc(Cl)c2)CC[C@]1(C)O | > 30.2 µM
110 | Cn1cc(CN2CCCC(c3nccnc3-c3cccc(F)c3)C2)cn1 (stereo not drawn) | > 30.2 µM
111 | COc1cccc2cc(CNCc3ccc(N4CCCC4)nc3)oc12 | > 30.2 µM
112 | Cc1ccc(NC2CCN(C(=O)c3cnn(C(C)(C)C)c3)CC2)nn1 | > 50.1 µM
113 | COCCN1CCN(Cc2cnc(C3(C)CCCCO3)nc2)CC1 (stereo not drawn) | > 50.1 µM
